Experiments:
[1] = tested on: fire ant venom (Solenopsis invicta) induced hemolysis of human red blood cells (RBCs); type: cell-based
[2] = tested on: box jellyfish venom (Alatina alata) induced hemolysis of human RBCs; assay: Inhibition of box jellyfish venom induced hemolysis of human RBCs; type: cell-based; conditions: for concentration at which active for box jellyfish venom inhibition: 5 units/mL/% RBC box jellyfish venom, 1 hour, 37° C., active at this concentration or greater
[3] = tested on: hemolytic toxins; conditions: 10 mM d-lactulose; cited from earlier work
[4] = tested on: cnidarian sting blistering inflammation; assay: Live jelly sting test, blistering inflammation; type: in vivo
[5] = tested on: fire ant venom-induced hemolysis of RBCs; assay: Live time microscopic imaging of fire ant venom-induced hemolysis of RBCs; type: cell-based, human; conditions: 10 ng/μL fire ant venom, 1 μM copper gluconate, single dose
[6] = tested on: live Alatina alata tentacles on human RBC agar; assay: RBC agar slide hemolysis by live Alatina alata tentacles; type: cell-based; conditions: 10 μM in agar slide, 2% fresh human RBC, 37° C., one hour
Description: 2-20 mm sections of fresh live Alatina alata tentacles were placed on top of freshly prepared RBC agar slide (3% NuSieve GTG low melting agarose, 150 mM NaCl with 2% fresh human RBC). Slides were incubated at 37° C. for one hour. Zones of hemolysis are observed in control slide (FIG. 5, left) but not in slides prepared with 10 μM Copper Gluconate (3% NuSieve GTG low melting agarose, 150 mM NaCl, 10 μM Copper Gluconate with 2% fresh human RBC) (FIG. 5, right). A zone of hemolysis indicates lysis of the red blood cells.

Question: Which results are given for zinc gluconate?
Answer: concentration at which active for fire ant venom inhibition [1]: approximately 25 mM; effect on hemolysis at early time points [1]: potently stimulated hemolysis; concentration at which active for box jellyfish venom inhibition [2]: approximately 300 μM

Question: With `OC[C@H]1O[C@@H](O[C@@H]2[C@@H](CO)O[C@](O)(CO)[C@H]2O)[C@H](O)[C@@H](O)[C@H]1O` [d-lactulose] as the compound, how does the hemolysis [3] read?
Answer: dramatic absence of hemolysis

Question: Which results are given for `O=C(Nc1ccc(Cl)cc1)Nc1ccc(Cl)c(Cl)c1` [TCC, triclocarban]?
Answer: resolution of blistering inflammation ([4]; 1% TCC in vanacreme, topical, untreated test lasted up to 72 hr): fully resolving the blistering inflammation; time to resolve blistering inflammation ([4]; after application of a live jelly in a sting test): ≤ 90 min

Question: Which “concentration at which active for fire ant venom inhibition” value [1] does the source give for copper gluconate here?
Answer: approximately 3 μM

Question: And the “efficacy relative to zinc gluconate in the inhibition of ant venom” value [1]?
Answer: approximately 10,000 times

Question: What about the slowing of hemolysis [5] of the same compound?
Answer: 6 fold

Question: And the “zones of hemolysis observed” value [6]?
Answer: not

Question: What about the “potency relative to zinc gluconate alone in inhibiting box jellyfish venom” value [2] of the same compound?
Answer: approximately 10 times

Question: And the “concentration at which active for box jellyfish venom inhibition” value [2]?
Answer: approximately 30 μM
